# US20050004167A1, “Branched chain amino acid-dependent aminotransferase inhibitors and their use in the treatment of neurodegenerative diseases” (WARNER-LAMBERT COMPANY LLC, priority 2001, published 2005)
row,SMILES,melting point [°C]
1,"COc1c(C(=O)NNS(=O)(=O)c2ccccc2)oc2ccc(-c3ccccc3)cc12 (hydrate or solvate) [Example 65, 2-Benzofurancarboxylic acid, 3-methoxy-5-phenyl-, 2-(phenylsulfonyl)hydrazide]",180.7 to 181.3
2,"COc1c(C(=O)NNS(=O)(=O)c2ccccc2)oc2c(-c3ccccc3)cccc12 (hydrate or solvate) [Example 67, 2-Benzofurancarboxylic acid, 3-methoxy-7-phenyl-, 2-(phenylsulfonyl)hydrazide]",186.7 to 187.3
3,"COc1c(C(=O)NNS(=O)(=O)c2ccccc2)oc2cc3ccccc3cc12 (hydrate or solvate) [Example 68, Naptho[2,3-b]furan-2-carboxylic acid, 3-methoxy-, 2-(phenylsulfonyl)hydrazide]",205.7 to 207.1
4,"O=C(NNS(=O)(=O)c1ccccc1Br)c1cc2cc(Cl)cc(Cl)c2o1 (hydrate or solvate) [Example 73, 2-Benzofurancarboxylic acid, 5,7-dichloro 2-[(2-bromophenyl)sulfonyl]-hydrazide]",196.2 to 196.6
5,"Cc1ccc2oc(C(=O)NNS(=O)(=O)c3ccccc3)cc2c1 (hydrate or solvate) [Example 77, Benzofurancarboxylic acid, 5-methyl-, 2-(phenylsulfonyl)hydrazide]",183.3 to 183.6
6,"COc1c(C(=O)NNS(=O)(=O)c2ccccc2)oc2ccc(Cl)cc12 (hydrate or solvate) [Example 78, 2-Benzofurancarboxylic acid, 5-chloro-3-methoxy, 2-(phenylsulfonyl)hydrazide]",242.2 to 244.2
7,"Cc1ccc2oc(C(=O)NNS(=O)(=O)c3ccccc3C(F)(F)F)cc2c1 (hydrate or solvate) [Example 79, 2-Benzofurancarboxylic acid, 5-methyl-, 2-[[2-(trifluoromethyl)phenyl]sulfonyl]-hydrazide]",194 to 195.4
8,"Cc1cccc(S(=O)(=O)NNC(=O)c2cc3cc(C)ccc3o2)c1 (hydrate or solvate) [Example 80, 2-Benzofurancarboxylic acid, 5-methyl-, 2-([3-methylphenyl)sulfonyl]hydrazide]",184.1 to 186
9,"Cc1ccc2oc(C(=O)NNS(=O)(=O)c3ccccc3C)cc2c1 (hydrate or solvate) [Example 81, 2-Benzofurancarboxylic acid, 5-methyl-, 2-[2-(methylphenyl)sulfonyl]hydrazide]",174.5 to 174.7
10,"Cc1ccc2oc(C(=O)NNS(=O)(=O)c3cccc(Cl)c3C)cc2c1 (hydrate or solvate) [Example 82, 2-Benzofurancarboxylic acid, 5-methyl-, 2-[(3-chloro-2-methylphenyl)sulfonyl]-hydrazide]",182.4 to 184
11,"Cc1ccc2oc(C(=O)NNS(=O)(=O)c3cccc(Br)c3)cc2c1 (hydrate or solvate) [Example 83, 2-Benzofurancarboxylic acid, 5-methyl-, 2-[3-(bromophenyl)sulfonyl]hydrazide]",207.2 to 209.9
12,"Cc1ccc2oc(C(=O)NNS(=O)(=O)c3cccc(Cl)c3)cc2c1 (hydrate or solvate) [Example 84, 2-Benzofurancarboxylic acid, 5-methyl-, 2-[(3-chlorophenyl)sulfonyl]hydrazide]",186.1 to 186.3
13,"Cc1ccc2oc(C(=O)NNS(=O)(=O)c3ccccc3OC(F)(F)F)cc2c1 (hydrate or solvate) [Example 85, 2-Benzofurancarboxylic acid, 5-methyl-, 2-[[2-(trifluoromethoxy)phenyl]-sulfonyl]hydrazide]",226.7 to 227
14,"Cc1cccc2cc(C(=O)NNS(=O)(=O)c3ccccc3)oc12 (hydrate or solvate) [Example 86, 2-Benzofurancarboxylic acid, 7-methyl-, 2-(phenylsulfonyl)hydrazide]",217.5 to 218
15,"Cc1cccc2oc(C(=O)NNS(=O)(=O)c3ccccc3)cc12 (hydrate or solvate) [Example 87, 2-Benzofurancarboxylic acid, 4-methyl-, 2-(phenylsulfonyl)hydrazide]",217 to 218

# Results, then the compound that gave them:
row,melting point [°C],SMILES
1,221.6 to 222.2,"Cc1c(C(=O)NNS(=O)(=O)c2ccccc2)oc2ccccc12 (hydrate or solvate) [Example 88, 2-Benzofurancarboxylic acid, 3-methyl-, 2-(phenylsulfonyl)hydrazide]"
2,225.9 to 227.1,"Cc1ccc2oc(C(=O)NNS(=O)(=O)c3ccccc3)c(C)c2c1 (hydrate or solvate) [Example 89, 2-Benzofurancarboxylic acid, 3,5-dimethyl-, 2-(phenylsulfonyl)hydrazide]"
3,246.8 to 247.8,"Cc1c(C(=O)NNS(=O)(=O)c2ccccc2)oc2ccc(Cl)cc12 (hydrate or solvate) [Example 90, 2-Benzofurancarboxylic acid, 5-chloro-3-methyl, 2-(phenylsulfonyl)hydrazide]"
4,206.9 to 207.7,"Nc1ccc2oc(C(=O)NNS(=O)(=O)c3ccccc3)cc2c1 (hydrate or solvate) [Example 91, 2-Benzofurancarboxylic acid, 5-amino-, 2-(phenylsulfonyl)hydrazide]"
5,234 to 234.6,"Cc1cccc(S(=O)(=O)NNC(=O)c2ccc3ncccc3c2)c1 (hydrate or solvate) [Example 128, 6-Quinolinecarboxylic acid, 2-[(3-methylphenyl)sulfonyl]hydrazide]"
6,238.6 to 239.4,"Cc1cccc(S(=O)(=O)NNC(=O)c2cnc3ccccc3c2)c1 (hydrate or solvate) [Example 129, 3-Quinolinecarboxylic acid, 2-[(3-methylphenyl)sulfonyl]hydrazide]"
7,238.4 to 239.1,"O=C(NNS(=O)(=O)c1cccc(Cl)c1)c1ccc2ncccc2c1 (hydrate or solvate) [Example 130, 6-Quinolinecarboxylic acid, 2-[(3-chlorophenyl)sulfonyl]hydrazide]"
8,249.5 to 250.4,"O=C(NNS(=O)(=O)c1cccc(Cl)c1)c1cnc2ccccc2c1 (hydrate or solvate) [Example 131, 3-Quinolinecarboxylic acid, 2-[(3-chlorophenyl)sulfonyl]hydrazide]"
9,250.6 to 251.3,"O=C(NNS(=O)(=O)c1cccc(F)c1)c1ccc2ncccc2c1 (hydrate or solvate) [Example 132, 6-Quinolinecarboxylic acid, 2-[(3-fluorophenyl)sulfonyl]hydrazide]"
10,247.8 to 248.4,"O=C(NNS(=O)(=O)c1cccc(F)c1)c1cnc2ccccc2c1 (hydrate or solvate) [Example 133, 3-Quinolinecarboxylic acid, 2-[(3-fluorophenyl)sulfonyl]hydrazide]"
11,241.6 to 242.3,"O=C(NNS(=O)(=O)c1cc(Cl)cc(Cl)c1)c1ccc2ncccc2c1 (hydrate or solvate) [Example 138, 6-Quinolinecarboxylic acid, 2-[(3,5-dichlorophenyl)sulfonyl]hydrazide]"
12,241.3 to 241.9,"O=C(NNS(=O)(=O)c1cc(Cl)cc(Cl)c1)c1cnc2ccccc2c1 (hydrate or solvate) [Example 139, 3-Quinolinecarboxylic acid, 2-[(3,5-dichlorophenyl)sulfonyl]hydrazide]"
